In PMC10752957, “GABAA receptors as plausible molecular targets and mediators for taurine and homotaurine actions” (Frontiers in Pharmacology, 2023):
Where “and” joins values, the source holds several entries; their conditions need not be identical. Equal entries are not always repeated. Where two headings read alike, the source gives them in different places.

Key:
[1] = tested on: GABAAR; parameters: method as in Allan and Harris, 1986; details: ref Allan and Harris, 1986; cited from earlier work
[2] = tested on: native GABAARs in cerebellar granule cells; assay: Whole-cell patch clamp of cerebellar granule cells in mouse brain slices, cumulative concentration-response; format: cell-based; details: for Maximal current response (Imax ± SEM): 1 mM HT, 3 mM taurine, 3 mM GABA; for Maximal current response (Imax ± SEM) / Hill slope of the concentration-response curve / EC50: n = 7; for Concentration at which currents reach saturation / Threshold concentration for eliciting currents: cumulative application; for Hill slope of the concentration-response curve: normalized concentration-response curves; for EC50: read-out: EC50 for evoking GABAAR-mediated current, CGCs held at −70 mV, 10 μM DNQX, 0.3 μM TTX, room temperature, mean ± SEM
[3] = tested on: rat; parameters: method as in Olive et al., 2002; details: fold lower doses than acetyl-HT, rat models; ref Olive et al., 2002; cited from earlier work
[4] = molecular target: mouse brain native GABAARs; assay: 5 nM [3H]muscimol displacement from mouse brain (sans cerebellum) membranes; format: binding; details: n = 9; for IC50: 5 nM [3H]muscimol, mean ± SEM, read-out: IC50 for displacing [3H]muscimol binding
Experimental: Adult mouse brain (sans cerebellum) membrane pellets were prepared essentially as described by [Uusi-Oukari et al. (2014)], suspended in 50 mM Tris-HCl, pH 7.4 (assay buffer) and frozen at −80°C. For binding experiments, the suspension was thawed and washed by centrifugation/resuspension in assay buffer. 5 nM [^3H]muscimol binding was measured in assay buffer at room temperature (RT, ∼22°C) in a total volume of 300 µL. […] After 20 min incubation at room temperature the membranes were collected with a Brandel Cell Harvester (Model M-24, Gaithersburg, MD, United States) onto Whatman GF/B filters (Whatman International Ltd., Maidstone, United Kingdom). The samples were rinsed twice with 4–5 mL of ice-cold assay buffer. Filtration and rinsing steps took a total time of ∼15 s. Air-dried filters were immersed in 3 mL of Optiphase HiSafe 3 scintillation fluid (Wallac, Turku, Finland) and radioactivity determined in a Hidex 600 SL liquid scintillation counter (Hidex, Turku, Finland). [^3H]Muscimol displacement and electrophysiology data were analyzed with GraphPad Prism 7 software (GraphPad, San Diego, CA, United States). Data are presented as mean ± standard error of mean (SEM). Statistical data analysis was performed with a Student’s t-test (two-tailed distribution, unequal variance) in Microsoft Excel.

[5] = tested on: primary cultured neurons; parameters: method as in Gervais et al., 2007; details: 100 μM HT; ref Gervais et al., 2007; cited from earlier work
[6] = tested on: ρ1-GABAARs; parameters: method as in Ochoa-de la Paz et al., 2018; details: expressed in oocytes, ref Ochoa-de la Paz et al., 2018, cited from earlier work
[7] = parameters: method as in Hey et al., 2018; details: ref Hey et al., 2018; cited from earlier work
[8] = tested on: rat brain GABAARs; parameters: method as in Bureau and Olsen, 1991; details: ref Bureau and Olsen, 1991, read-out: Average IC50 for displacing [3H]muscimol; cited from earlier work
[9] = tested on: GABAARs in thalamocortical relay neurons; parameters: method as in Jia et al., 2008; details: ref Jia et al., 2008; cited from earlier work
[10] = tested on: mice; parameters: method as in Singh et al., 2023; details: taurine 1 g/kg per day, ref Singh et al., 2023; cited from earlier work
[11] = tested on: strychnine-sensitive glycine receptors; parameters: method as in Jia et al., 2008; details: ref Jia et al., 2008; cited from earlier work
[12] = tested on: chick embryonic neuronal cultures; parameters: method as in Louzada et al., 2004; details: 1 mM taurine; ref Louzada et al., 2004; cited from earlier work

SMILES	Maximal current response (Imax ± SEM) [2]	Concentration at which currents reach saturation [2]	Threshold concentration for eliciting currents [2]	Hill slope of the concentration-response curve [2]	EC50 [2]	IC50 ([4]; room temperature)	Hill slope of the [3H]muscimol displacement curve [4]	further results
NCCCS(=O)(=O)O [HT, Homotaurine]	−75 ± 7 pA	around 10 µM	~100 nM	0.79 ± 0.05	400 nM and 425 nM and ~400 nM	160 nM and 158 nM and ~200 nM	−0.79 ± 0.04	Concentration that stimulates GABAAR-mediated chloride flux [1]: ≥ 100 µM; Potency relative to GABA ([2]; times more potent than GABA): about 10 times; Sensitivity of native CGC GABAARs relative to recombinant ρ1-GABAARs ([2]; times more sensitive to HT): about 1000 times; Dose that reduces alcohol intake, relative to acetyl-HT [3]: ~10 fold; IC50 [4]: 158 ± 10 nM; IC50 ([4]; room temperature, listed as Homotaurine): 158 ± 10 nM; Effect on neuronal death induced by 5 μM Aβ42 [5]: inhibited; Type of agonism on recombinant ρ1-GABAARs [6]: partial agonist; EC50 ([6]; read-out: EC50 on recombinant ρ1-GABAARs): ~300000 nM; Estimated average total brain 14C-HT [7]: 0.55 µM
COc1ccc(-c2ccc(=N)n(CCCC(=O)O)n2)cc1 [Gabazine]	–	–	–	–	–	–	–	Block of currents evoked by 1 mM HT, 3 mM taurine and 3 mM GABA ([2]; applied together with saturating agonist): completely blocks
NCCS(=O)(=O)O [taurine, Taurine]	−67 ± 7 pA	around 3 mM	around 10 μM	0.87 ± 0.06	116000 nM	125000 nM	−0.86 ± 0.04	IC50 [8]: ~50000 nM; Concentration that activates GABAARs [9]: ≥ 10 µM; Increase in life span [10]: 10%; Concentration that also activates strychnine-sensitive glycine receptors [11]: > 100 µM; Effect on neurotoxicity of 44 μM Aβ42 and glutamate receptor agonists [12]: prevented
NCCCC(=O)O [GABA]	–	~1 mM	300 nM	0.92 ± 0.13	–	–	–	–
